Data taken from US20240002391A1, “4-ALKOXYPYRROLO[2,1-F][1,2,4]TRIAZINES AND PREPARATION AND USES THEREOF” (BioSplice Therapeutics, Inc., priority 2022, published 2024).

Molecular target: recombinant DYRK1A kinase (Homo sapiens (Human), UniProt Q13627)
Assay: DYRK1A kinase assay (Ser/Thr 18 peptide Z-lyte FRET)
Assay type: biochemical
Details: DYRK1A kinase activity, Z-lyte Ser/Thr 18 peptide, 15 μM ATP; method text calls the value IC50; read-out: EC50 (the source's name)
How it was run: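 Kinase 0.25 μg/mL + ATP 15 μM + Ser/Thr 18 peptide 4 μM, 1 h RT with cpd (10 μM top, 1:3, 11 pts, n=2). Dev. reagent A 1 h RT. Ex 400, Em 455/520 ratio → % phos. → IC50, nonlinear fit.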

Compound | IC50 [nM]
COc1nc(N[C@H]2C[C@@](C)(NC(=O)C3(C#N)CC3)C2)nn2ccc(-c3ccc4ncnn4c3)c12 [Compound 562, N-((1s,3s)-3-((5-([1,2,4]Triazolo[1,5-a]pyridin-6-yl)-4-methoxypyrrolo[2,1-f][1,2,4]triazin-2-yl)amino)-1-methylcyclobutyl)-1-cyanocyclopropane-1-carboxamide] | 1.1
COc1nc(N[C@H]2C[C@](C)(NC(=O)C3(C#N)CC3)C2)nn2ccc(-c3ccc4ncnn4c3)c12 [Compound 563, N-((1r,3r)-3-((5-([1,2,4]Triazolo[1,5-a]pyridin-6-yl)-4-methoxypyrrolo[2,1-f][1,2,4]triazin-2-yl)amino)-1-methylcyclobutyl)-1-cyanocyclopropane-1-carboxamide] | 1
CC[C@]1(O)CC[C@H](Nc2nc(OC)c3c(-c4ccc5ncnn5c4)ccn3n2)CC1 [Compound 567, (1r,4r)-4-((5-([1,2,4]Triazolo[1,5-a]pyridin-6-yl)-4-methoxypyrrolo[2,1-f][1,2,4]triazin-2-yl)amino)-1-ethylcyclohexan-1-ol] | 3.7
COc1nc(N[C@@H]2CCNCC2(F)F)nn2ccc(-c3ccc4ncnn4c3)c12 [Compound 575, (R)-5-([1,2,4]Triazolo[1,5-a]pyridin-6-yl)-N-(3,3-difluoropiperidin-4-yl)-4-methoxypyrrolo[2,1-f][1,2,4]triazin-2-amine] | 6.9
COc1nc(N[C@@H]2CCN(C)CC2(F)F)nn2ccc(-c3ccc4ncnn4c3)c12 [Compound 576, (R)-5-([1,2,4]Triazolo[1,5-a]pyridin-6-yl)-N-(3,3-difluoro-1-methylpiperidin-4-yl)-4-methoxypyrrolo[2,1-f][1,2,4]triazin-2-amine] | 7.3
CCN1CC[C@@H](Nc2nc(OC)c3c(-c4ccc5ncnn5c4)ccn3n2)C(F)(F)C1 [Compound 577, (R)-5-([1,2,4]Triazolo[1,5-a]pyridin-6-yl)-N-(1-ethyl-3,3-difluoropiperidin-4-yl)-4-methoxypyrrolo[2,1-f][1,2,4]triazin-2-amine] | 6.4
COc1nc(N[C@@H]2CCN(C3COC3)CC2(F)F)nn2ccc(-c3ccc4ncnn4c3)c12 [Compound 578, (R)-5-([1,2,4]Triazolo[1,5-a]pyridin-6-yl)-N-(3,3-difluoro-1-(oxetan-3-yl)piperidin-4-yl)-4-methoxypyrrolo[2,1-f][1,2,4]triazin-2-amine] | 8
COc1nc(NC23CCC(O)(CC2)C3)nn2ccc(-c3ccc4ncnn4c3)c12 [Compound 582, 4-((5-([1,2,4]Triazolo[1,5-a]pyridin-6-yl)-4-methoxypyrrolo[2,1-f][1,2,4]triazin-2-yl)amino)bicyclo[2.2.1]heptan-1-ol] | 40.9
COc1nc(N[C@H]2C[C@](C)(NC(C)=O)C2)nn2cc(F)c(-c3ccc4ncnn4c3)c12 [Compound 585, N-((1r,3r)-3-((5-([1,2,4]Triazolo[1,5-a]pyridin-6-yl)-6-fluoro-4-methoxypyrrolo[2,1-f][1,2,4]triazin-2-yl)amino)-1-methylcyclobutyl)acetamide] | 2.2
COc1nc(N[C@H]2CC[C@](C)(O)CC2)nn2cc(F)c(-c3ccc4ncnn4c3)c12 [Compound 589, (1r,4r)-4-((5-([1,2,4]Triazolo[1,5-a]pyridin-6-yl)-6-fluoro-4-methoxypyrrolo-[2,1-f][1,2,4]triazin-2-yl)amino)-1-methylcyclohexan-1-ol] | 0.9
C[C@]1(O)CC[C@H](Nc2nc(OCC(F)F)c3c(-c4ccc5ncnn5c4)ccn3n2)CC1 [Compound 616, (1r,4r)-4-((5-([1,2,4]Triazolo[1,5-a]pyridin-6-yl)-4-(2,2-difluoroethoxy)pyrrolo [2,1-f][1,2,4]triazin-2-yl)amino)-1-methylcyclohexan-1-ol] | 2.9
C[C@]1(O)CC[C@H](Nc2nc(OC3COC3)c3c(-c4ccc5ncnn5c4)ccn3n2)CC1 [Compound 621, (1r,4r)-4-((5-([1,2,4]Triazolo[1,5-a]pyridin-6-yl)-4-(oxetan-3-yloxy)pyrrolo[2,1-f][1,2,4]triazin-2-yl)amino)-1-methylcyclohexan-1-ol] | 35.4
COc1nc(N[C@H]2CC[C@](C)(O)CC2)nn2ccc(-c3ccc4nc(C)nn4c3)c12 [Compound 622, (1r,4r)-4-((4-Methoxy-5-(2-methyl-[1,2,4]triazolo[1,5-a]pyridin-6-yl)pyrrolo[2,1-f][1,2,4]triazin-2-yl)amino)-1-methylcyclohexan-1-ol] | 14.1
COc1nc(NC[C@@H]2CNCCO2)nn2ccc(-c3ccc4nnn(C)c4c3)c12 [Compound 623, (S)-4-Methoxy-5-(1-methyl-1H-benzo[d][1,2,3]triazol-6-yl)-N-(morpholin-2-ylmethyl)pyrrolo[2,1-f][1,2,4]triazin-2-amine] | 5.1
CCO[C@H]1C[C@@H](Nc2nc(OC)c3c(-c4ccc5nnn(C)c5c4)ccn3n2)C1 [Compound 624, N-(cis-3-Ethoxycyclobutyl)-4-methoxy-5-(1-methyl-1H-benzo[d][1,2,3]triazol-6-yl)pyrrolo[2,1-f][1,2,4]triazin-2-amine] | 8.6
COc1nc(N[C@@H]2CCN(C)CC2(F)F)nn2ccc(-c3ccc4nnn(C)c4c3)c12 [Compound 626, (R)—N-(3,3-Difluoro-1-methylpiperidin-4-yl)-4-methoxy-5-(1-methyl-1H-benzo[d][1,2,3]triazol-6-yl)pyrrolo[2,1-f][1,2,4]triazin-2-amine] | 2.7
CCN1CC[C@@H](Nc2nc(OC)c3c(-c4ccc5nnn(C)c5c4)ccn3n2)C(F)(F)C1 [Compound 627, (R)—N-(1-Ethyl-3,3-difluoropiperidin-4-yl)-4-methoxy-5-(1-methyl-1H-benzo[d][1,2,3]triazol-6-yl)pyrrolo[2,1-f][1,2,4]triazin-2-amine] | 3.9
COc1nc(N[C@@H]2CCN(C3COC3)CC2(F)F)nn2ccc(-c3ccc4nnn(C)c4c3)c12 [Compound 628, (R)—N-(3,3-Difluoro-1-(oxetan-3-yl)piperidin-4-yl)-4-methoxy-5-(1-methyl-1H-benzo[d][1,2,3]triazol-6-yl)pyrrolo[2,1-f][1,2,4]triazin-2-amine] | 6.3
COc1nc(N[C@H]2CCN(C)C[C@H]2F)nn2cc(F)c(-c3ccc4nnn(C)c4c3)c12 [Compound 630, 6-Fluoro-N-((3R,4S)-3-fluoro-1-methylpiperidin-4-yl)-4-methoxy-5-(1-methyl-1H-benzo[d][1,2,3]triazol-6-yl)pyrrolo[2,1-f][1,2,4]triazin-2-amine] | 4.9
CCn1nnc2ccc(-c3ccn4nc(N[C@H]5CCN(C6COC6)C[C@H]5F)nc(OC)c34)cc21 [Compound 646, 5-(1-Ethyl-1H-benzo[d][1,2,3]triazol-6-yl)-N-((3R,4S)-3-fluoro-1-(oxetan-3-yl)piperidin-4-yl)-4-methoxypyrrolo[2,1-f][1,2,4]triazin-2-amine] | 3.4
COc1nc(N[C@@H]2CN(C(C)=O)C[C@@H]2F)nn2ccc(-c3ccc4nnn(CCF)c4c3)c12 [Compound 660, 1-((3S,4R)-3-Fluoro-4-((5-(1-(2-fluoroethyl)-1H-benzo[d][1,2,3]triazol-6-yl)-4-methoxypyrrolo[2,1-f][1,2,4]triazin-2-yl)amino)pyrrolidin-1-yl)ethan-1-one] | < 0.2
COc1nc(N[C@H]2CCN(C(C)=O)C[C@H]2F)nn2ccc(-c3ccc4nnn(CCF)c4c3)c12 [Compound 664, 1-((3R,4S)-3-Fluoro-4-((5-(1-(2-fluoroethyl)-1H-benzo[d][1,2,3]triazol-6-yl)-4-methoxypyrrolo[2,1-f][1,2,4]triazin-2-yl)amino)piperidin-1-yl)ethan-1-one] | 1.6
COc1nc(N[C@H]2CCN(C3COC3)C[C@H]2F)nn2ccc(-c3ccc4nnn(CCF)c4c3)c12 [Compound 666, N-((3R,4S)-3-Fluoro-1-(oxetan-3-yl)piperidin-4-yl)-5-(1-(2-fluoroethyl)-1H-benzo[d][1,2,3]triazol-6-yl)-4-methoxypyrrolo[2,1-f][1,2,4]triazin-2-amine] | 1.1
COc1nc(N[C@@H]2CCN(C(C)=O)CC2(F)F)nn2ccc(-c3ccc4nnn(CCF)c4c3)c12 [Compound 669, (R)-1-(3,3-Difluoro-4-((5-(1-(2-fluoroethyl)-1H-benzo[d][1,2,3]triazol-6-yl)-4-methoxypyrrolo[2,1-f][1,2,4]triazin-2-yl)amino)piperidin-1-yl)ethan-1-one] | 1.6
COc1nc(N[C@@H]2CCN(C3COC3)CC2(F)F)nn2ccc(-c3ccc4nnn(CCF)c4c3)c12 [Compound 670, (R)—N-(3,3-Difluoro-1-(oxetan-3-yl)piperidin-4-yl)-5-(1-(2-fluoroethyl)-1H-benzo[d][1,2,3]triazol-6-yl)-4-methoxypyrrolo[2,1-f][1,2,4]triazin-2-amine] | 0.8
COc1nc(N[C@H]2CC[C@](C)(O)CC2)nn2ccc(-c3ccc4nnn(/C=C/F)c4c3)c12 [Compound 672, (1r,4r)-4-((5-(1-((E)-2-fluorovinyl)-1H-benzo[d][1,2,3]triazol-6-yl)-4-methoxypyrrolo[2,1-f][1,2,4]triazin-2-yl)amino)-1-methylcyclohexan-1-ol] | 5.9
COc1nc(NC2CCC(=O)N(C)C2)nn2ccc(-c3ccc4nnn(/C=C/F)c4c3)c12 (stereo not shown) [Compound 673, (E)-5-((5-(1-(2-Fluorovinyl)-1H-benzo[d][1,2,3]triazol-6-yl)-4-methoxypyrrolo[2,1-f][1,2,4]triazin-2-yl)amino)-1-methylpiperidin-2-one] | 5.3
COc1nc(N[C@H]2CC[C@](C)(O)CC2)nn2ccc(-c3ccc4nnn(C(C)C)c4c3)c12 [Compound 681, (1r,4r)-4-((5-(1-Isopropyl-1H-benzo[d][1,2,3]triazol-6-yl)-4-methoxypyrrolo[2,1-f][1,2,4]triazin-2-yl)amino)-1-methylcyclohexan-1-ol] | 1.9
